Where two headings read alike, the source gives them in different places.
Columns and labels:
PC3 cells = experiment: PC3 growth inhibition (Cell-titer glo, 72 hours); type: cell-based; conditions: Homo sapiens, PC-3, PC3 cells, 72 hours, Cell-titer glo, read-out: Percent Inhibition (PC3 growth inhibition); for inhibition at 1.667 µM: compound concentration 1.667 μM; for inhibition at 1 µM: compound concentration 1 μM
Procedure, shortened: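 Compounds in AIM serum-free medium were applied for 72 h at 37 °C, 5% CO2 to PC3 cells plated overnight from RPMI1640 culture. Luminescence after 10 min CellTiter-Glo, normalised to DMSO, gave % viability at 1 μM or 1.667 μM, or GI50/LD50.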

hNAMPT protein = hNAMPT protein (Homo sapiens (Human), UniProt P43490); experiment: NAMPT enzyme assay (TR-FRET/HTRF, BodiPY ligand, anti 6His-Tb); type: binding; conditions: for IC50: NAMPT IC50 range class, read-out: IC50; for inhibition at 1 µM: read-out: Percent Inhibition
Procedure, shortened: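 Compound or DMSO was incubated for 1 h at room temperature, protected from light, with BodiPY ligand and hNAMPT labelled by terbium anti-6His antibody. The 520 nm to 486 nm emission ratio after 320 nm excitation gave inhibition versus vehicle, from which concentration-response curves yielded IC50.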

hNAMPT protein, sequence (P43490 whole entry): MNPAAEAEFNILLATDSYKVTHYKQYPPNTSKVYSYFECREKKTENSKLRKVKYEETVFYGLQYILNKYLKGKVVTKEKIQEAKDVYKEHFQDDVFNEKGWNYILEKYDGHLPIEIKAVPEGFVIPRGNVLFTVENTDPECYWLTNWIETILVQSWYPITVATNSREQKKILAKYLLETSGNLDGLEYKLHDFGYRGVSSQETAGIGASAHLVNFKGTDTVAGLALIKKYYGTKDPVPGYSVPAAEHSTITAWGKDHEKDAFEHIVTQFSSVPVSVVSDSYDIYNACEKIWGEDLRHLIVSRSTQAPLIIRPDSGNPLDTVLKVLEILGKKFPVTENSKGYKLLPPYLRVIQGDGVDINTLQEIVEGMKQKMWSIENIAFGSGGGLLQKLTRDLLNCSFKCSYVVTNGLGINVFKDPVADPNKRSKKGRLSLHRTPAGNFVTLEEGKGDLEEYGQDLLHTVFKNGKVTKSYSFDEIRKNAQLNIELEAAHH

Q: Which inhibition at 1.667 µM (PC3 cells) does the source give for `O=C(NCCCc1ncc[nH]1)c1ccc2nc(-c3ccc(F)cc3)c(-c3ccc(F)cc3)nc2c1` [Compound I-178, 2,3-bis(4-fluorophenyl)-N-[3-(1H-imidazol-2-yl)propyl]quinoxaline-6-carboxamide] here?
A: 2%

Q: And the IC50 (hNAMPT protein)?
A: < 100 nM

Q: What about the inhibition at 1 µM (hNAMPT protein; compound concentration 1 μM) of the same compound?
A: 97%

Q: `Cn1cccc1-c1nc2ccc(C(=O)NCCCn3ccnc3)cc2nc1-c1ccccc1` [Compound I-179, N-[3-(1H-imidazol-1-yl)propyl]-2-(1-methyl-1H-pyrrol-2-yl)-3-phenylquinoxaline-6-carboxamide] was tested. Which inhibition at 1 µM (PC3 cells) did it give?
A: -7%

Q: What about the IC50 (hNAMPT protein) of the same compound?
A: 500 to 1000 nM

Q: What about the inhibition at 1 µM (hNAMPT protein; compound concentration 1 μM) of the same compound?
A: 57%

Q: With `O=C(NCCCc1ccccn1)c1ccc2nc(-c3ccc(F)cc3)c(-c3ccc(F)cc3)nc2c1` [Compound I-180, 2,3-Bis(4-fluorophenyl)-N-[3-(pyridin-2-yl)propyl]quinoxaline-6-carboxamide] as the compound, how does the inhibition at 1 µM (PC3 cells) read?
A: 102%

Q: And the IC50 (hNAMPT protein)?
A: 2000 to 10000 nM

Q: And the inhibition at 1 µM (hNAMPT protein)?
A: 27%

Q: With `COc1cccc(-c2nc3ccc(C(=O)NCCc4cccnc4)cc3nc2-c2cccc(OC)c2)c1` [Compound I-181, 2,3-bis(3-methoxyphenyl)-N-[2-(pyridin-3-yl)ethyl]quinoxaline-6-carboxamide] as the compound, how does the inhibition at 1 µM (PC3 cells) read?
A: 0%

Q: And the IC50 (hNAMPT protein)?
A: < 100 nM

Q: And the inhibition at 1 µM (hNAMPT protein; compound concentration 1 μM)?
A: 100%

Q: How did the inhibition at 1 µM (PC3 cells) turn out when `CS(=O)(=O)c1cccc(-c2nc3ccc(C(=O)NCCCn4ccnc4)cc3nc2-c2ccccc2)c1` [Compound I-182, N-[3-(1H-imidazol-1-yl)propyl]-2-[3-(methylsulfonyl)phenyl]-3-phenylquinoxaline-6-carboxamide] was run?
A: -7%

Q: What about the IC50 (hNAMPT protein) of the same compound?
A: 100 to 500 nM

Q: What about the inhibition at 1 µM (hNAMPT protein; compound concentration 1 μM) of the same compound?
A: 83%

Q: For `COc1cccc(-c2nc3cc(C(=O)NCCCc4ncc[nH]4)ccc3nc2N2CCCCC2)c1` [Compound I-183, N-[3-(1H-imidazol-2-yl)propyl]-3-(3-methoxyphenyl)-2-(piperidin-1-yl)quinoxaline-6-carboxamide], which inhibition at 1.667 µM (PC3 cells) is on record?
A: 2%

Q: What about the IC50 (hNAMPT protein) of the same compound?
A: < 100 nM

Q: What about the inhibition at 1 µM (hNAMPT protein; compound concentration 1 μM) of the same compound?
A: > 99%

Q: For `O=C(NCCc1cnccn1)c1ccc2nc(-c3ccc(F)cc3)c(-c3ccc(F)cc3)nc2c1` [Compound I-184, 2,3-bis(4-fluorophenyl)-N-[2-(pyrazin-2-yl)ethyl]quinoxaline-6-carboxamide], which inhibition at 1 µM (PC3 cells) is on record?
A: 101%

Q: What about the IC50 (hNAMPT protein) of the same compound?
A: 1000 to 2000 nM

Q: What about the inhibition at 1 µM (hNAMPT protein; compound concentration 1 μM) of the same compound?
A: 39%

Q: What does the source list for `COc1cccc(-c2nc3ccc(C(=O)NCCCn4ccnc4)cc3nc2-c2ccccc2)c1` [Compound I-187, N-[3-(1H-imidazol-1-yl)propyl]-2-(3-methoxyphenyl)-3-phenylquinoxaline-6-carboxamide]?
A: inhibition at 1 µM (PC3 cells): -8%; IC50 (hNAMPT protein): 100 to 500 nM; inhibition at 1 µM (hNAMPT protein; compound concentration 1 μM): 84%

Q: Which results are given for `CC(C)(C)OC(=O)N1CCC(C2CCN(c3nc4ccc(C(=O)NCCCn5ccnc5)cc4nc3-c3ccccc3)CC2)CC1` [Compound I-188, tert-butyl 1′-(6-{[3-(1H-imidazol-1-yl)propyl]carbamoyl}-3-phenylquinoxalin-2-yl)-4,4′-bipiperidine-1-carboxylate]?
A: inhibition at 1 µM (PC3 cells): -7%; IC50 (hNAMPT protein): 100 to 500 nM; inhibition at 1 µM (hNAMPT protein; compound concentration 1 μM): 83%

Q: What does the source list for `COc1cccc(-c2nc3cc(C(=O)NCCc4cccnc4)ccc3nc2N2CCOCC2)c1` [Compound I-189, 3-(3-methoxyphenyl)-2-(morpholin-4-yl)-N-[2-(pyridin-3-yl)ethyl]quinoxaline-6-carboxamide]?
A: inhibition at 1.667 µM (PC3 cells): 2%; IC50 (hNAMPT protein): < 100 nM; inhibition at 1 µM (hNAMPT protein; compound concentration 1 μM): 91%

Q: For `NC(=O)c1ccc(-c2nc3ccc(C(=O)NCCCn4ccnc4)cc3nc2-c2ccccc2)cc1` [Compound I-190, 2-(4-carbamoylphenyl)-N-[3-(1H-imidazol-1-yl)propyl]-3-phenylquinoxaline-6-carboxamide], which inhibition at 1 µM (PC3 cells) is on record?
A: -6%

Q: What about the IC50 (hNAMPT protein) of the same compound?
A: 100 to 500 nM

Q: And the inhibition at 1 µM (hNAMPT protein; compound concentration 1 μM)?
A: 74%

Q: With `O=C(NCCCn1ccnc1)c1ccc2nc(-c3ccccc3)c(NCc3ccccc3)nc2c1` [Compound I-191, 3-(benzylamino)-N-[3-(1H-imidazol-1-yl)propyl]-2-phenylquinoxaline-6-carboxamide] as the compound, how does the inhibition at 1 µM (PC3 cells) read?
A: 24%

Q: And the IC50 (hNAMPT protein)?
A: 2000 to 10000 nM

Q: And the inhibition at 1 µM (hNAMPT protein; compound concentration 1 μM)?
A: 16%

From patent US10144742B2 (Millennium Pharmaceuticals, Inc., priority 2014, dated 2018)
